{"source": "patent US4609549A", "about": "“Biologically active substance from Islets-Activating Protein” (Kaken Pharmaceutical Co., Ltd., priority 1983, dated 1986)", "key": {"glucose tolerance": {"test_system": "glucose tolerance", "assay": "Glucose tolerance", "type": "in vivo", "details": "mammals"}, "leukocyte count [1]": {"test_system": "leukocyte count", "assay": "Stability in methylamine solution: change with time of ΔLP activity", "type": "in vivo, male Wistar rats", "details": "3.44M methylamine solution (pH 9.5)", "from_the_text": "(§1) ΔLP activity=(leukocyte count in sample-administered\n(§2) group)-(leukocyte count in control group)\n(§3) The stability in an amine-containing alkaline solution of the modified IAP of the present invention and an IAP amidino derivative disclosed in Japanese Patent Application Laid-Open No. 129295/80 (Application No. 35877/79) was examined."}, "[2]": {"test_system": "Epinephrine hyperglycemia", "assay": "Epinephrine hyperglycemia inhibitory activity (EpI activity) one day after administration", "type": "in vivo", "details": "12 μg/kg i.v., male Wistar rats", "description": "IV. Epinephrine hyperglycemia inhibitory activity (EpI activity)\n(§4) Each sample is intravenously injected to the male Wistar rats (about 150 g body weight) at a dose of 12 μg/kg, and after sample injection, epinephrine is subcutaneously injected to the rats under fast on a daily basis. The difference between blood sugar level before epinephrine injection and that one hour after injection is compared with the difference in the control group to thereby determine the EpI activity (%).\n(§5) ΔGC : control group [(blood sugar level after epinephrine injection)-(blood sugar level before injection)]\n(§6) ΔGT : sample-administered group [(blood sugar level after epinephrine injection)-(blood sugar level before injection)] [formula]\n(§7) The control is non-modified IAP."}, "Solubility": {"assay": "Solubility", "type": "physicochemical", "details": "pyridine, 2-mercaptoethanol, aqueous sodium dodecylsulfate and cystine", "description": "(§8) The powder of IAP obtained by freeze-drying the aqueous dialysed and de-salted solution is non-deliquescent, and white or light brown in colour, and is soluble in water to the extent of 3 to 5 mg/ml at room temperature. […] When IAP is put into aqueous 6N hydrochloric acid solution, a precipitate white in colour separates out. Addition of sodium sulfate, dry ice plus acetone, ethanol, trichloroacetic acid, aqueous solution of zinc chloride, or aqueous solutions containing several other kinds of metal ions to an aqueous solution of IAP at 4° C., causes the aqueous solution to become turbid and a precipitate to settle out. When IAP is put into a mixture of water and chloroform or of water and n-butanol, IAP gathers on the interface of both liquids."}, "secretion of insulin": {"test_system": "secretion of insulin", "assay": "Activity of promoting the secretion of insulin", "type": "in vivo, mammals", "from_the_text": "The definition of the activity units used in the present invention is described in Japanese Patent Application Laying Open No. 96392/72 which corresponds to G.B. Patent No. 1,569,046."}, "leukocyte count [3]": {"test_system": "leukocyte count", "assay": "Leukocytosis-promoting activity (ΔLP activity) one day after administration", "details": "12 μg/kg i.v., male Wistar rats", "description": "V. Leukocytosis-promoting activity (ΔLP activity)\nEach sample is intravenously injected into male Wister rats (about 150 g body weight) at a rate of 12 μg/kg, and the leukocyte count is measured on a daily basis. The leukocyte increment is determined from the difference in leukocyte count between the sample-administered group and the control group.\nas §1, §2\nThe pharmacological activity, acute toxicity, and stability in an alkaline solution, of the resultant products obtained in the Examples were examined in the manners described above.\nas §7"}, "Isoelectric point": {"assay": "Isoelectric point", "type": "physicochemical", "from_the_text": "The isoelectric point of IAP determined by the method described in Wringley, C.W., \"J. Chromatogr.\", 36, 362-372 (1968) is pH 8.9±0.5."}, "[4]": {"assay": "Stability of IAP (heat, moisture)", "type": "physicochemical", "description": "as §8\nIn addition, when IAP is dissolved into aqueous 0.1M phosphate buffer solution of pH of 7.0 containing sodium chloride at 0.5M and the solution is subjected to dialysis against distilled water as the external liquid, the mixed solution becomes turbid once, however, with the progress of dialysis, the white turbidity disappears completely."}, "[5]": {"test_system": "pertussis 18-323 strain (I-phase)", "assay": "Infection prevention test (survival after intracerebral inoculation of live pertussis bacteria)", "type": "in vivo, Bordetella pertussis (ddY mice, male)", "details": "two weeks after inoculation", "description": "(ii) The IAP processed into toxoid with glutaraldehyde (hereinafter referred to as toxoid-processed IAP) used as the comparative example was prepared in the following precedures. To 0.1M phosphate buffer solution (containing 2M urea, pH 7.0) containing IAP (0.5 mg/ml) adjusted to pH 9.0 by adding 1N sodium hydroxide, was added a 25% aqueous solution of glutaraldehyde so that the final concentration of glutaraldehyde would become 0.05%. The mixed solution was reacted under stirring at room temperature for 22 hours. The resultant solution was then sufficiently dialyzed against a 0.1M phosphate buffer solution (containing 2M urea, pH 7.0) to obtain the toxoid-processed IAP.\n(iii) A toxoid-processed reductively methylated IAP was also similarly prepared by using a reductively methylated IAP solution in place of an IAP solution.\nThere were prepared five kinds of the physiological saline solutions containing a dead pertussis vaccine (made by KAKEN PHARMACEUTICAL CO., LTD.), toxoid-processed IAP, toxoid-processed reductively methylated IAP, IAP and reductively methylated IAP, respectively, and 0.1 ml of each of these physiological saline solutions was administered into the peritoneal cavities of the ddY mice (male, 4 weeks old) (13 mice per one group). Two weeks after the administration, the live pertussis 18-323 strain (I-phase) bacteria were inoculated into the encephalon at a rate of 4×10^4cells/animal. […] Used as the control was a group of mice which were treated similarly by giving 0.1 ml of a physiological saline solution alone into the peritoneal cavity."}, "[6]": {"test_system": "Epinephrine hyperglycemia", "assay": "Stability in methylamine solution: change with time of EpI activity", "type": "in vivo, male Wistar rats", "details": "3.44M methylamine solution (pH 9.5)", "description": "as §4, §5, §6, §3"}, "ddY mice": {"test_system": "ddY mice", "assay": "Acute toxicity (LD50), intravenous", "type": "in vivo", "details": "i.v., ddY mice (male)", "from_the_text": "as §7"}}, "data": [{"substance": "IAP: Islets-Activating Protein obtained by the cultivation of suitable strain(s) of the microorganism Bordetella pertussis (Phase I or II)", "values": [{"measurement": "activity of improving the glucose tolerance", "setting": "glucose tolerance", "value": "improving the glucose tolerance in mammals"}, {"measurement": "ΔLP activity", "setting": "leukocyte count [1]; treatment time 0 hr", "value": "144 × 10^2 /mm^3"}, {"measurement": "ΔLP activity", "setting": "leukocyte count [1]; treatment time 24 hr", "value": "141 × 10^2 /mm^3"}, {"measurement": "ΔLP activity", "setting": "leukocyte count [1]; treatment time 48 hr", "value": "138 × 10^2 /mm^3"}, {"measurement": "ΔLP activity", "setting": "leukocyte count [1]; treatment time 72 hr", "value": "139 × 10^2 /mm^3"}, {"measurement": "EpI activity", "setting": "[2]", "value": 85.0, "unit": "%"}, {"measurement": "solubility in other solvents", "setting": "Solubility", "value": "soluble in pyridine, 2-mercaptoethanol and aqueous solution of sodium dodecylsulfate and of cystine"}, {"measurement": "duration of insulin secretion promoting and glucose tolerance improving actions", "setting": "secretion of insulin; after a single administration", "value": "several weeks to several months"}, {"measurement": "activity of promoting the secretion of insulin", "setting": "secretion of insulin; in vivo", "value": "not less than 193 unit/μg"}, {"measurement": "ΔLP activity", "setting": "leukocyte count [3]", "value": "140.1 × 10^2 /mm^3"}, {"measurement": "isoelectric point", "setting": "Isoelectric point", "value": "8.9±0.5", "unit": "pH"}, {"measurement": "deliquescence of freeze-dried powder", "setting": "[4]", "value": "non-deliquescent"}, {"measurement": "stability of aqueous solution on heating", "setting": "[4]; heated to 80° C. or higher", "value": "the solution becomes turbid white in colour"}, {"measurement": "Number of animals which survived/total number of animals tested", "setting": "[5]; 0.04 μg/animal i.p.", "value": "6/13"}, {"measurement": "Survival rate", "setting": "[5]; 0.04 μg/animal i.p.", "value": 46, "unit": "%"}, {"measurement": "Number of animals which survived/total number of animals tested", "setting": "[5]; 0.2 μg/animal i.p.", "value": "8/13"}, {"measurement": "Survival rate", "setting": "[5]; 0.2 μg/animal i.p.", "value": 62, "unit": "%"}, {"measurement": "Number of animals which survived/total number of animals tested", "setting": "[5]; 1 μg/animal i.p.", "value": "3/13"}, {"measurement": "Survival rate", "setting": "[5]; 1 μg/animal i.p.", "value": 23, "unit": "%"}, {"measurement": "EpI activity", "setting": "[6]; treatment time 0 hr", "value": 82.0, "unit": "%"}, {"measurement": "EpI activity", "setting": "[6]; treatment time 24 hr", "value": 83.0, "unit": "%"}, {"measurement": "EpI activity", "setting": "[6]; treatment time 48 hr", "value": 80.5, "unit": "%"}, {"measurement": "EpI activity", "setting": "[6]; treatment time 72 hr", "value": 79.8, "unit": "%"}, {"measurement": "LD50", "setting": "ddY mice", "value": 0.215, "unit": "mg/kg"}]}]}
